Measurements published in patent US20230265104A1, “NOVEL HETEROCYCLIC COMPOUNDS” (PRISM BIOLAB CO., LTD., priority 2020, published 2023).

Tested on: PANC-1 (human pancreatic cancer-derived cell line)
Experiment: MTS assay on Panc-1 (human pancreas carcinoma cell line)
Type: cell-based
Settings: 144 h; for IC50: PANC-1, MTS method, cell survival 6 days after exposure, 4-parameter logistic fit; for inhibition at 10 µM: read-out: Growth inhibition (%) 10 μM; for inhibition at 0.15625 µM: read-out: Growth inhibition (%) 0.15625 μM
Procedure: Experimental Example: MTS Assay on Panc-1 (Human Pancreas Carcinoma Cell Line) cell line name: PANC-1 derived from: human pancreas glandular cancer purchased from: ATCC product code: CRL-1469 proliferation medium: D-MEM+10% FBS culture environment: 37° C., 5% CO2 seeding density: 5.0×10^5 cells/25 cm^2 solvent control substance: DMSO (HYBRI-MAX®, Sigma-Aldrich Corp.) test substance: Example compound (ID-1-ID-13) A DMSO solution of the test substance was prepared by serially diluting (common ratio 2) each test substance with DMSO.
A solvent control substance sample and a test substance sample were exposed to a human pancreatic cancer-derived cell line (PANC-1), and the survival rate of the cell 6 days later was measured by the MTS method. The measurement was performed 3 times and the average thereof was adopted. The survival rate of the cell in each test substance sample was calculated by the following formula 1 with the value at exposure of the solvent control substance sample as 100% survival rate. […]
survival rate (%)=100×absorbance of each test substance sample/absorbance of solvent control substance sample formula 1 Normalized values calculated by the following formula 2 from the absorbances of each sample at 492 nm and 630 nm and the absorbances of the blank were used as the absorbances in the above-mentioned formula 1. […]
normalized value (ABS492 nm-630 nm)=(ABSsa 492 nm-ABSsa 630 nm)−(ABSbl 492 nm-ABSbl 630 nm) ABSsa 492: absorbance of each sample at wavelength 492 nm ABSsa 630: absorbance of each sample at wavelength 630 nm ABSbl 492: absorbance of blank corresponding to each sample at wavelength 492 nm ABSbl 630: absorbance of blank corresponding to each sample at wavelength 630 nm formula 2 […]
The analysis was performed by using nplr package on R (The R Foundation for Statistical Computing) and estimating the logistic regression curve (4-parameter).

SMILES | IC50 [nM] | inhibition at 10 µM (PANC-1, MTS, 6 days) [%] | further results
CC(C)C[C@H]1ON(C(=O)/C=C/c2nc(C#CCCCO)cs2)[C@H]2CN(C3CCN(C(C)C)CC3)C(=O)[C@H](CC(C)(C)C)N2C1=O [ID-10, (3R,6S,9aS)-1-((E)-3-(4-(5-hydroxypent-1-yn-1-yl)thiazol-2-yl)acryloyl)-3-isobutyl-8-(1-isopropylpiperidin-4-yl)-6-neopentyltetrahydropyrazino[2,1-c][1,2,4]oxadiazine-4,7(3H,6H)-dione] | 48 |  | 
CSCC[C@H]1C(=O)N(C2CCN(C)CC2)C[C@@H]2N(C(=O)/C=C/c3nc4ccccc4s3)O[C@H](CC(C)C)C(=O)N21 [ID-60, (3R,6S,9aS)-1-((E)-3-(benzo[d]thiazol-2-yl)acryloyl)-3-isobutyl-8-(1-methylpiperidin-4-yl)-6-(2-(methylthio)ethyl)tetrahydropyrazino[2,1-c][1,2,4]oxadiazine-4,7(3H,6H)-dione] | 270 | 93.7 | 
CC(C)C[C@H]1ON(C(=O)/C=C/c2ccccn2)[C@H]2CN(C3CCN(C)CC3)C(=O)[C@H](CCCCNCc3ccccc3)N2C1=O [ID-57, (3R,6S,9aS)-6-(4-(benzylamino)butyl)-3-isobutyl-8-(1-methylpiperidin-4-yl)-1-((E)-3-(pyridin-2-yl)acryloyl)tetrahydropyrazino[2,1-c][1,2,4]oxadiazine-4,7(3H,6H)-dione] | 1000 | 101 | 
CC(C)C[C@H]1ON(C(=O)/C=C/c2nc(C#CCCCCCO)cs2)[C@H]2CN([C@@H]3CCN(CCCCO)C3)C(=O)[C@H](CC(C)(C)C)N2C1=O [ID-13, (3R,6S,9aS)-8-((R)-1-(4-hydroxybutyl)pyrrolidin-3-yl)-1-((E)-3-(4-(7-hydroxyhept-1-yn-1-yl)thiazol-2-yl)acryloyl)-3-isobutyl-6-neopentyltetrahydropyrazino[2,1-c][1,2,4]oxadiazine-4,7(3H,6H)-dione] | 140 |  | 
Cc1nc(/C=C/C(=O)N2O[C@H](CC(C)C)C(=O)N3[C@@H]2CN(CCC(N)=O)C(=O)[C@@H]3CC(C)C)sc1C [ID-34, 3-((3R,6S,9aS)-1-((E)-3-(4,5-dimethylthiazol-2-yl)acryloyl)-3,6-diisobutyl-4,7-dioxohexahydropyrazino[2,1-c][1,2,4]oxadiazin-8(1H)-yl)propanamide] | 2600 | 95.5 | 
CC(C)C[C@H]1ON(C(=O)/C=C/c2nc3cc(O)ccc3s2)[C@H]2CN([C@H]3CCN(CCCCO)C3)C(=O)[C@H](CC(C)(C)C)N2C1=O [ID-7, (3R,6S,9aS)-1-((E)-3-(5-hydroxybenzo[d]thiazol-2-yl)acryloyl)-8-((S)-1-(4-hydroxybutyl)pyrrolidin-3-yl)-3-isobutyl-6-neopentyltetrahydropyrazino[2,1-c][1,2,4]oxadiazine-4,7(3H,6H)-dione] | 70 |  | 
CC(C)C[C@H]1ON(C(=O)/C=C/c2nc(C#CCOCCO)cs2)[C@H]2CN(C3CCN(C(C)C)CC3)C(=O)[C@H](CC(C)(C)C)N2C1=O [ID-97, (3R,6S,9aS)-1-((E)-3-(4-(3-(2-hydroxyethoxy)prop-1-yn-1-yl)thiazol-2-yl)acryloyl)-3-isobutyl-8-(1-isopropylpiperidin-4-yl)-6-neopentyltetrahydropyrazino[2,1-c][1,2,4]oxadiazine-4,7 (3H, 6H)-dione] | 150 |  | inhibition at 0.15625 µM (PANC-1, MTS, 6 days): 51%
CC(C)C[C@H]1ON(C(=O)/C=C/[C@@H]2CCCN2C)[C@H]2CN(CCC(N)=O)C(=O)[C@H](CC(C)C)N2C1=O [ID-42, 3-((3R,6S,9aS)-3,6-diisobutyl-1-((E)-3-((S)-1-methylpyrrolidin-2-yl)acryloyl)-4,7-dioxohexahydropyrazino[2,1-c][1,2,4]oxadiazin-8(1H)-yl)propanamide] |  | 65.3 | 
CC(C)C[C@H]1ON(C(=O)/C=C/c2nc3ccccc3s2)[C@H]2CN(C3CN(CCCCO)C3)C(=O)[C@H](CC(C)(C)C)N2C1=O [ID-84, (3R,6S,9aS)-1-((E)-3-(benzo[d]thiazol-2-yl)acryloyl)-8-(1-(4-hydroxybutyl)azetidin-3-yl)-3-isobutyl-6-neopentyltetrahydropyrazino[2,1-c][1,2,4]oxadiazine-4,7(3H,6H)-dione] | 110 |  | inhibition at 0.3125 µM (PANC-1, MTS, 6 days, 0.3125 μM, read-out: Growth inhibition (%) 0.3125 μM): 88.9%
CC(C)C[C@H]1ON(C(=O)/C=C/c2nc(C#N)cs2)[C@H]2CN(C3CCN(C)CC3)C(=O)[C@H](CC(C)C)N2C1=O [ID-3, 2-((E)-3-((3R, 6S, 9aS)-3,6-diisobutyl-8-(1-methylpiperidin-4-yl)-4,7-dioxohexahydropyrazino[2,1-c] [1,2,4]oxadiazin-1(6H)-yl)-3-oxoprop-1-en-1-yl)thiazole-4-carbonitrile] | 340 |  | 
CC(C)C[C@@H]1C(=O)N2[C@H](CN(C3CCN(C)CC3)C(=O)[C@@H]2Cc2ccccc2)N1C(=O)/C=C/c1nc2ccccc2s1 [ID-86, (2R,5S,8aR)-1-((E)-3-(benzo[d]thiazol-2-yl)acryloyl)-5-benzyl-2-isobutyl-7-(1-methylpiperidin-4-yl)tetrahydroimidazo[1,2-a]pyrazine-3,6(2H,5H)-dione] |  |  | inhibition at 1.25 µM (PANC-1, MTS, 6 days, 1.25 μM, read-out: Growth inhibition (%) 1.25 μM): 50%
CC(C)C[C@H]1ON(C(=O)/C=C/c2cc(C#N)ccn2)[C@H]2CN(C3CCN(C)CC3)C(=O)[C@H](CC(C)C)N2C1=O [ID-48, 2-((E)-3-((3R,6S,9aS)-3,6-diisobutyl-8-(1-methylpiperidin-4-yl)-4,7-dioxohexahydropyrazino[2,1-c][1,2,4]oxadiazin-1(6H)-yl)-3-oxoprop-1-en-1-yl)isonicotinonitrile] | 580 | 100 | 
CC(C)C[C@H]1ON(C(=O)/C=C/c2nc3cc(OCCCO)ccc3s2)[C@H]2CN(C3CCN(C(C)C)CC3)C(=O)[C@H](CC(C)(C)C)N2C1=O [ID-101, (3R,6S,9aS)-1-((E)-3-(5-(3-hydroxypropoxy)benzo[d]thiazol-2-yl)acryloyl)-3-isobutyl-8-(1-isopropylpiperidin-4-yl)-6-neopentyltetrahydropyrazino[2,1-c][1,2,4]oxadiazine-4,7(3H,6H)-dione] |  |  | inhibition at 0.15625 µM (PANC-1, MTS, 6 days): 65.6%
CC(C)C[C@H]1ON(C(=O)/C=C/c2nc3ccccc3s2)[C@H]2CN(C3CCN(C(=O)c4ncc(F)cn4)CC3)C(=O)[C@H](CC(C)C)N2C1=O [ID-50, (3R,6S,9aS)-1-((E)-3-(benzo[d]thiazol-2-yl)acryloyl)-8-(1-(5-fluoropyrimidine-2-carbonyl)piperidin-4-yl)-3,6-diisobutyltetrahydropyrazino[2,1-c][1,2,4]oxadiazine-4,7(3H,6H)-dione] | 590 | 101 | 
CC(C)C[C@H]1ON(C(=O)/C=C/c2ccccn2)[C@H]2CN(C3CCN(C)CC3)C(=O)[C@H](CC(C)C)N2C1=O [ID-1, (3R, 6S, 9aS)-3,6-diisobutyl-8-(1-methylpiperidin-4-yl)-1-((E)-3-(pyridin-2-yl)acryloyl) tetrahydropyrazino[2,1-c] [1,2,4]oxadiazine-4,7(3H,6H)-dione] | 4100 |  | 
CC(C)N1CCC(N2C[C@@H]3N(C(=O)/C=C/c4nc(C#CCCCCO)cs4)O[C@H](CC4CC4)C(=O)N3[C@@H](CC(C)(C)C)C2=O)CC1 [ID-99, (3R,6S,9aS)-3-(cyclopropylmethyl)-1-((E)-3-(4-(6-hydroxyhex-1-yn-1-yl)thiazol-2-yl)acryloyl)-8-(1-isopropylpiperidin-4-yl)-6-neopentyltetrahydropyrazino[2,1-c] [1,2,4]oxadiazine-4,7(3H,6H)-dione] |  |  | inhibition at 0.15625 µM (PANC-1, MTS, 6 days): 61.1%
CC(C)C[C@H]1ON(C(=O)/C=C/c2ccccn2)[C@H]2CN(CCC(N)=O)C(=O)[C@H](CC(C)C)N2C1=O [ID-14, 3-((3R,6S,9aS)-3,6-diisobutyl-4,7-dioxo-1-((E)-3-(pyridin-2-yl)acryloyl)hexahydropyrazino[2,1-c][1,2,4]oxadiazin-8 (1H)-yl)propanamide] | 17800 |  | 
CCOC(=O)c1cnc(/C=C/C(=O)N2O[C@H](CC(C)C)C(=O)N3[C@@H]2CN(CCC(N)=O)C(=O)[C@@H]3CC(C)C)s1 [ID-33, ethyl 2-((E)-3-((3R,6S,9aS)-8-(3-amino-3-oxopropyl)-3,6-diisobutyl-4,7-dioxohexahydropyrazino[2,1-c][1,2,4]oxadiazin-1(6H)-yl)-3-oxoprop-1-en-1-yl)thiazole-5-carboxylate] | 1100 | 99.9 | 
CC(C)C[C@H]1ON(C(=O)/C=C/c2ccccn2)[C@H]2CN(C3CCNCC3)C(=O)[C@H](CC(C)C)N2C1=O [ID-16, (3R,6S,9aS)-3,6-diisobutyl-8-(piperidin-4-yl)-1-((E)-3-(pyridin-2-yl)acryloyl)tetrahydropyrazino[2,1-c][1,2,4]oxadiazine-4,7(3H,6H)-dione] | 4700 |  | inhibition at 30 µM (PANC-1, MTS, 6 days, 30 μM, read-out: Growth inhibition (%) 30 μM): 100%
